These are literature values, as cited in patent publication US20060165789A1, “Lercanidipine modified release compositions” (Forest Laboratories, Inc., priority 2004, published 2006).

SMILES strings stand for the structures.

For data set [1] the following is noted: for time of maximum concentration (Tmax): form (I) and form (II) compared.
The next data set has as its system Caco2 cell. The settings on record: Caco2 cell apparatus.
For data set [2], the system named is dihyropyridine subunit of the L-type calcium channel.
For data set [3] the following is noted: pH 5.
For data set [4], the target named is cytochrome P450 3A4 isoenzyme (Homo sapiens, UniProt P08684). The note with it: extensive presystemic first pass elimination in patients.
Sequence of cytochrome P450 3A4 isoenzyme (P08684 whole entry): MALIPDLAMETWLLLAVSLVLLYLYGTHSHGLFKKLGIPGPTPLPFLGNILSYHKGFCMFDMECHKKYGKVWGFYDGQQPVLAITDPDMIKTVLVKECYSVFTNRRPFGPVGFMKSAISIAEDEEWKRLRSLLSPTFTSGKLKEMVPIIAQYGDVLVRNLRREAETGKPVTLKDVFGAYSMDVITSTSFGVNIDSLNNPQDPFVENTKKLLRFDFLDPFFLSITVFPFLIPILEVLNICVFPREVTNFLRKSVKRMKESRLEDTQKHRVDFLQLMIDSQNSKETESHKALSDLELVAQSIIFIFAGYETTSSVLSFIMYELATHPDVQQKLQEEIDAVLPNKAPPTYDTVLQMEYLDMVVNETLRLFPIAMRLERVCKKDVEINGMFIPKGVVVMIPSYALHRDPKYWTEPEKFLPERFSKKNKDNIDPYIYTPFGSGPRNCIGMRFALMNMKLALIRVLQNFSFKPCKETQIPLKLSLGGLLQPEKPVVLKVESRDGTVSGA

Consider `COC(=O)C1=C(C)NC(C)=C(C(=O)OC(C)(C)CN(C)CCC(c2ccccc2)c2ccccc2)C1c1cccc([N+](=O)[O-])c1` (stereo not shown) [form (II)], for which, in data set [1], the “time of maximum concentration (Tmax)” value is “delayed time of maximum concentration”. Also, in data set [1] (form (II) compared to Form (I)), the bioavailability result is recorded as “higher bioavailability” and the “systemic exposure (AUCo-t)” value is given as “slightly higher systemic exposure”.

In the case of `COC(=O)C1=C(C)NC(C)=C(C(=O)OC(C)(C)CN(C)CCC(c2ccccc2)c2ccccc2)C1c1cccc([N+](=O)[O-])c1.Cl` (stereo not shown) [Lercanidipine, methyl 1,1,N-trimethyl-N-(3,3-diphenylpropyl)-2-aminoethyl 1,4-dihydro-2,6-dimethyl-4-(3-nitrophenyl)pyridine-3,5-dicarboxylate], in the data set on Caco2 cell, the Papp was 0.05 ×10⁻⁶ cm/s. Also, the “affinity for L-type calcium channel” value in data set [2] was “high affinity”. Further, the “solubility in acidic medium” value in data set [3] is listed as “less than 20 μg/ml”. Also, the “cytochrome P450 3A4 substrate” value in data set [4] was “substrate for cytochrome P450 3A4 isoenzyme”. Besides, the “increase of amount of lercanidipine absorbed with food” value (in vivo) was “between three and four times”. Also, the “time of peak plasma level following dosage” value (oral administration) is 1 to 3 h.

Take `COC(=O)C1=C(C)NC(C)=C(C(=O)OC(C)(C)CN(C)CCC(c2ccccc2)c2ccccc2)C1c1cccc([N+](=O)[O-])c1` (stereo not shown) [form (I)]: the “time of maximum concentration (Tmax)” value in data set [1] is on record as “shorter time to maximum concentration”.
